pIC50: −log10 of the molar value. Read-outs that look alike come from different tables or passages of the source.
How the values were obtained:
PI3K delta (PI3Kd) = target: T1, PI3K delta (PI3Kd) (Homo sapiens, UniProt O00329); assay: kinobeads assay, PI3K delta (dot blot detection); format: binding
T1 construct: endogenous in cells; host or cells: Jurkat cells (ATCC TIB-152, clone E6-1), lysate
Summary of the method: (§1)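 Jurkat cell lysate (5 mg/mL protein) incubated 2 h in the cold with test compound (9-step 1:3 series) and immobilized phenylthiazole/phenylmorpholin-chromen ligand beads. Bead-bound kinases eluted, detected by specific antibody dot blot with infrared readout; IC50 from dose-response curves.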

[1] = target: T2, DNA-dependent protein kinase (DNA-PK) (Homo sapiens, UniProt P78527); assay: kinobeads assay, DNA-PK (dot blot detection); format: binding
T2 construct: endogenous in cells; host or cells: Jurkat cells (ATCC TIB-152, clone E6-1), lysate
Summary of the method: as §1

mTOR = target: T3, mTOR (Homo sapiens, UniProt P42345); assay: mTOR kinobeads assay (dot blot detection); format: binding
T3 construct: endogenous in cells; host or cells: Jurkat cells (ATCC TIB-152, clone E6-1), lysate
Summary of the method: as §1

PI3Kα = target: T4, PI3Kα (Homo sapiens, UniProt P42336); assay: kinobeads assay, PI3K alpha (dot blot detection); format: binding; conditions: Table 4, read-out: Inhibition values (IC50) PI3Ka
T4 construct: endogenous in cells; host or cells: Jurkat cells (ATCC TIB-152) lysate, the only lysate described

[2] = test system: S6RP serine-240/244 phosphorylation in HEK293T/17 cells; assay: In vitro phospho-S6 cellular assay (pS6RP S240/244); format: cell-based; conditions: Homo sapiens, Table 6, 2 hours, S6RP Ser240/244, read-out: pS6 (phospho-S6 cell assay data, activity level)
Excerpt: In Vitro Phospho-S6 and Phospho-Akt Cellular Assay
Activation of mTOR signaling results in phosphorylation of several downstream targets. In cells, mTOR exists in two different protein complexes. The mTOR Complex-1 (mTORC1) phosphorylates and activates S6 Kinase 1 (S6K1) and S6 Kinase 2 (S6K2) (also known as p70S6K) which then phosphorylate S6 Ribosomal Protein (S6RP) (also known as RPS6). S6RP is phosphorylated on serine 235, serine 236, serine 240 and serine 244 by both pS6K1 and pS6K2. The mTOR Complex-2 (mTORC2) phosphorylates AKT on serine 473 which activates the AKT signaling pathway.
The assay measures a test compound's inhibition of S6RP serine-240/244 phosphorylation and inhibition of Akt serine-473 phosphorylation in human embryonic kidney derived HEK293T/17 cells (ATCC CRL-11268).
The HEK293T/17 cell line is maintained in DMEM media (Invitrogen catalogue number 41965-039) supplemented with 10% FCS at 37° C. in a 5% CO2 humidified incubator.
Cells are seeded in 96-well plates at 40,000 cells/well (pS6RP S240/244 assay) or 80,000 cells/well (pAkt 5473 assay) in 90 μl growth media (DMEM, 2% FCS). Plates are incubated for 1 hour in a humidified incubator to allow the cells to adhere. Cells are treated with 8 concentrations of test compounds or DMSO alone for controls (final DMSO concentration 0.1%) and incubated at 37° C. for 2 hours. Then 20 μl of 5× concentrated lysis buffer (750 mM NaCl, 100 mM Tris pH7.4, 5 mM EDTA, 5 mM EGTA, 5% Triton X-100) is added, plates are sealed and incubated for 15 minutes at 4° C. with gentle shaking. After cell lysis, 25 μl cell lysate is transferred to a MesoScale plate coated with an antibody to pS6RP Ser240/244 (MesoScale Discovery K150DGD-3) or an antibody to pAkt Ser 473 (MesoScale Discovery K151DGD-3). Plates have been blocked before by incubation with 150 μl MesoScale Discovery Blocking Solution-A for 1 hour at room temperature followed by washing with 150 μl 1× Tris wash buffer per well. After the transfer of the cell lysate to the MSD plate, the pS6RP (or pAkt) protein is captured on the coated antibody by incubation at room temperature for 1 hour with gentle shaking. After the capture step the plate is washed three times with 150 μl of 1× Tris wash buffer per well. Then 25 μl detection antibody conjugated with a Sulfo-Tag is added and incubated for 1 hour at room temperature with gentle shaking. Subsequently the antibody solution is removed and the plate is washed 3 times with 150 μl 1× Tris wash buffer per well and 150 μl Read buffer is added. The plates are analysed on a MSD 2400 Plate Reader (MesoScale Discovery). Data analysis is performed using nonlinear regression for a sigmoidal dose-response with a variable slope.

PI3Kβ = target: T5, PI3Kβ (Homo sapiens, UniProt P42338); assay: kinobeads assay, PI3K beta (dot blot detection); format: binding; conditions: Table 4, read-out: Inhibition values (IC50) PI3Kb
T5 construct: endogenous in cells; host or cells: Jurkat cells (ATCC TIB-152) lysate, the only lysate described

PI3Kγ = target: T6, PI3Kγ (Homo sapiens, UniProt P48736); assay: kinobeads assay, PI3K gamma (dot blot detection); format: binding; conditions: Table 4, read-out: Inhibition values (IC50) PI3Kg
T6 construct: endogenous in cells; host or cells: Jurkat cells (ATCC TIB-152) lysate, the only lysate described

[3] = Table 2, Jurkat cell lysate, read-out: Inhibition values (IC50) PI3Kd
[4] = Table 4, read-out: Inhibition values (IC50) PI3Kd
[5] = Table 2, Jurkat cell lysate, read-out: Inhibition values (IC50) DNAPK
[6] = Table 4, read-out: Inhibition values (IC50) DNAPK
[7] = Table 2, Jurkat cell lysate, read-out: Inhibition values (IC50) mTor
[8] = Table 4, read-out: Inhibition values (IC50) mTOR

T4 sequence (P42336 whole entry): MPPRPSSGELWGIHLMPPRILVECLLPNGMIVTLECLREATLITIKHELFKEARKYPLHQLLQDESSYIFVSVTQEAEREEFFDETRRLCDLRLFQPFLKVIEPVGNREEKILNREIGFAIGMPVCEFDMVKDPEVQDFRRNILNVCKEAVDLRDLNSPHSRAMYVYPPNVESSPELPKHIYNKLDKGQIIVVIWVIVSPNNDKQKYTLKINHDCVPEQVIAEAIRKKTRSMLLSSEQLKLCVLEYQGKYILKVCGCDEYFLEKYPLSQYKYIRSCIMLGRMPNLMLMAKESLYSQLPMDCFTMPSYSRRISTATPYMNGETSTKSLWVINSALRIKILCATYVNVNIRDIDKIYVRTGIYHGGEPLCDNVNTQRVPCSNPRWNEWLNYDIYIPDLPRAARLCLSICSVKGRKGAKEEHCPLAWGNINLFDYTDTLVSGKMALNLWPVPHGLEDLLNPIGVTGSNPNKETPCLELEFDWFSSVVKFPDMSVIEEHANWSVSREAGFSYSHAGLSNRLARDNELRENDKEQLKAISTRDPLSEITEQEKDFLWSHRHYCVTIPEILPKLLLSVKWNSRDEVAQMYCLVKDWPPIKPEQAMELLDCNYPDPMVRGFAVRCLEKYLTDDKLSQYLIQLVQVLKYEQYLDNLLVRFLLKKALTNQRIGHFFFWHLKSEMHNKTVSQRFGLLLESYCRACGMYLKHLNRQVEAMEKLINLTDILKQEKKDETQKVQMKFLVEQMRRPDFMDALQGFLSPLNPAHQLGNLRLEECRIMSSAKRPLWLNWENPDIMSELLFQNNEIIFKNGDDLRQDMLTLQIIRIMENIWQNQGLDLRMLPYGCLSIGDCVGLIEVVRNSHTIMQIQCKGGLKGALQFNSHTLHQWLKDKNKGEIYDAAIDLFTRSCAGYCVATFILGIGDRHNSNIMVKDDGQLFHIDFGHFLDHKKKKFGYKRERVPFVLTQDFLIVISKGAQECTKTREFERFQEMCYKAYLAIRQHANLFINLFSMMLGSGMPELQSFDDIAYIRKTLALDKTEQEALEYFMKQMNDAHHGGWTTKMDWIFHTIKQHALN
T4 sequence (P27986 whole entry partner): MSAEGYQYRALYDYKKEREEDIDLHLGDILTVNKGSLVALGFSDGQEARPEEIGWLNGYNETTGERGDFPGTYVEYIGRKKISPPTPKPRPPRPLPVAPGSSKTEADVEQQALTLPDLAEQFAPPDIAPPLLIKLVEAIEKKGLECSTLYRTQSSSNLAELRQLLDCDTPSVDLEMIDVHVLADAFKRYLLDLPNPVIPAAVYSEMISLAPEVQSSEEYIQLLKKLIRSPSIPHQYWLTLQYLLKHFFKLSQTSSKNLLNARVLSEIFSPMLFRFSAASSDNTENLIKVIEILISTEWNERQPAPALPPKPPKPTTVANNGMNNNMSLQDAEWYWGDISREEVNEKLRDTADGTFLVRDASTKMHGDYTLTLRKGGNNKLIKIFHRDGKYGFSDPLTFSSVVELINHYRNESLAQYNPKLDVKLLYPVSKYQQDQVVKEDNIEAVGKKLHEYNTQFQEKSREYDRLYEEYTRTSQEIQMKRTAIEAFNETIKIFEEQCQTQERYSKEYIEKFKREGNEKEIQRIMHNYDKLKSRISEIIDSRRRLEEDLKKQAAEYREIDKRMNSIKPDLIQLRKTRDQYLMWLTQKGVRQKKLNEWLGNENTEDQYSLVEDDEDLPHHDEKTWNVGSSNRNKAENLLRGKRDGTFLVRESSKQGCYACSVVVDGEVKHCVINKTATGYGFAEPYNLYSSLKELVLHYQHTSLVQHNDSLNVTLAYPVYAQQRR
T1 sequence (O00329 whole entry): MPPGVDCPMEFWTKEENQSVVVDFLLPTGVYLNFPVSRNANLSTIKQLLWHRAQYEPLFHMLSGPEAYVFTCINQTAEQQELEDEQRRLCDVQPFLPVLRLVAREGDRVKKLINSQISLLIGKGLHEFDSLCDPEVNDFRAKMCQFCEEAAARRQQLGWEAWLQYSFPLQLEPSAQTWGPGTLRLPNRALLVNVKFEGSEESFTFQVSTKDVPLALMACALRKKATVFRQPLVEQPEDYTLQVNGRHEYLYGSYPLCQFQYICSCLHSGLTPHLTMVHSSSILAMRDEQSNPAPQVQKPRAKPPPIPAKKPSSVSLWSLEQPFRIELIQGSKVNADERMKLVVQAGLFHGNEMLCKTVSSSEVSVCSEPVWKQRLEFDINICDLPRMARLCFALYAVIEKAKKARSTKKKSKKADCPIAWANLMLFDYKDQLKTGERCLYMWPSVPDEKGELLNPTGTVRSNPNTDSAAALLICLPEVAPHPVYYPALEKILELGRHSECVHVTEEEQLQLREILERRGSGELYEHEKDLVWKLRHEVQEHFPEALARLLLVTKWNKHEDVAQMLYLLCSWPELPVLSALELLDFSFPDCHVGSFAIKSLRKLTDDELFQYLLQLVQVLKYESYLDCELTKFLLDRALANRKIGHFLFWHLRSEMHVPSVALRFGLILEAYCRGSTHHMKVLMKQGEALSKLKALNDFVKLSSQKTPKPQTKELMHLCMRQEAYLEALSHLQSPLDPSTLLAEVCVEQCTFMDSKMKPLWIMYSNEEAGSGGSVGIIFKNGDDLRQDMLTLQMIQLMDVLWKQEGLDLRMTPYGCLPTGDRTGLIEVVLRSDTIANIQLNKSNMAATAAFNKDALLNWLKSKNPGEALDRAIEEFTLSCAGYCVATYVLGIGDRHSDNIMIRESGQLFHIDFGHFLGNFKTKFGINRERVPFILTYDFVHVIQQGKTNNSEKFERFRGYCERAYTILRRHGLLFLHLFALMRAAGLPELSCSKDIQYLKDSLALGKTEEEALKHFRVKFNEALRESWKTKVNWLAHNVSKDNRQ
T1 sequence (P27986 whole entry partner): as the sequence (P27986 whole entry partner) above
T6 sequence (P48736 whole entry): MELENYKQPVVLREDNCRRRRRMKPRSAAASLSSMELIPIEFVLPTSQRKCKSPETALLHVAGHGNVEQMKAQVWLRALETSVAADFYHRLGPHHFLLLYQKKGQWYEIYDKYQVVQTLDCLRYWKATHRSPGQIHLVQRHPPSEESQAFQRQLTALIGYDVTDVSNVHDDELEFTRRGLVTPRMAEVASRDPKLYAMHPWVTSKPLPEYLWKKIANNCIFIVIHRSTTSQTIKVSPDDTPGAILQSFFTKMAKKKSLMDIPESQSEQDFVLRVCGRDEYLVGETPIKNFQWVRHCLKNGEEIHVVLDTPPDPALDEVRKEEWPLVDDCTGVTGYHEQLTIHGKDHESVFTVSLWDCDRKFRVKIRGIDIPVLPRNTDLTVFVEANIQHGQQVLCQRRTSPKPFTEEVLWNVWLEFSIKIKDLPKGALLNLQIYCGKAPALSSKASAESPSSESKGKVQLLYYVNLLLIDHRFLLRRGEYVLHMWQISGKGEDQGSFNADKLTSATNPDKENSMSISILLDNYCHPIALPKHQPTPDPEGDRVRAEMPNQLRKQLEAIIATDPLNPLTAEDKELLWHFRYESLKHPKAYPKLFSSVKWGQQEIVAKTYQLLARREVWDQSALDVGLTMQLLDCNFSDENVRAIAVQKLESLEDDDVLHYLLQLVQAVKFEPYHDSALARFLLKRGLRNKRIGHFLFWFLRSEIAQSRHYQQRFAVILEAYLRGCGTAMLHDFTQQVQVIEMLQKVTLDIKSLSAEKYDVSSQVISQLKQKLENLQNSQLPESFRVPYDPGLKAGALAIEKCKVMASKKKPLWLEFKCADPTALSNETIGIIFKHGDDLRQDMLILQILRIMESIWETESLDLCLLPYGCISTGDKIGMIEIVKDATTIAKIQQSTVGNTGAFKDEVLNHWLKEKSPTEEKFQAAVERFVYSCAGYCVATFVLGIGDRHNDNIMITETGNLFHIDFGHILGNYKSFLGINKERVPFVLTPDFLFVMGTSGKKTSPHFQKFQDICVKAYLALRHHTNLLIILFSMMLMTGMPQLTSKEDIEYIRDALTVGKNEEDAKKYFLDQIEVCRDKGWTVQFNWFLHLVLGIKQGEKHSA
T5 sequence (P42338 whole entry): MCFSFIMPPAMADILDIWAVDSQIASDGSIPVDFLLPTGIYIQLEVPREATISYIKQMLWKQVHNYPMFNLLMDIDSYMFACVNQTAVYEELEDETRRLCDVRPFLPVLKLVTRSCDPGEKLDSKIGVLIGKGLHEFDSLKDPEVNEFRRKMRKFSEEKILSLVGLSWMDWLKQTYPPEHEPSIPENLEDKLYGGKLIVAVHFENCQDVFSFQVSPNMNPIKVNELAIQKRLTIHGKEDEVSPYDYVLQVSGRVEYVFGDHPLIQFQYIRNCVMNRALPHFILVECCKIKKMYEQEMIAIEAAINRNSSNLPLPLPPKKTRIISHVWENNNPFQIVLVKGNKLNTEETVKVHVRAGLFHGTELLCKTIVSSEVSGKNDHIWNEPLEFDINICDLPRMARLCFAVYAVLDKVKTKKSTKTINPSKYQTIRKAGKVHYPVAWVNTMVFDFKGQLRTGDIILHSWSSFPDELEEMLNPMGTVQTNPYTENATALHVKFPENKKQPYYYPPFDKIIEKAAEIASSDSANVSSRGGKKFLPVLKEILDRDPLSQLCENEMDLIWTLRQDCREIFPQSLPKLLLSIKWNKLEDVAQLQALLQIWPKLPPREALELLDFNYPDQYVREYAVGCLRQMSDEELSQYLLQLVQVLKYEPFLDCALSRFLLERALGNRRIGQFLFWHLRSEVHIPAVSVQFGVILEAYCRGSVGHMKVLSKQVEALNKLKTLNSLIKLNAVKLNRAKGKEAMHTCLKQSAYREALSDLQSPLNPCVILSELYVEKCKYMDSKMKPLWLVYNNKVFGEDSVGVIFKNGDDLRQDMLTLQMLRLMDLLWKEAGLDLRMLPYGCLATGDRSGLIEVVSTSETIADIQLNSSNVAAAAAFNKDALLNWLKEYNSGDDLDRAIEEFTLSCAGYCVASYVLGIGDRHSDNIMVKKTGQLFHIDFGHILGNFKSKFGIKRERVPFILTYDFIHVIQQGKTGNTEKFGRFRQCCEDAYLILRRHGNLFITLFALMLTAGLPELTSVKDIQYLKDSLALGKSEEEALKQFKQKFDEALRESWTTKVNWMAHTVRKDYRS
T5 sequence (P27986 whole entry partner): as the sequence (P27986 whole entry partner) above

Row | SMILES | pIC50 (PI3K delta (PI3Kd); [3]) | pIC50 (PI3K delta (PI3Kd); [4]) | pIC50 [1, 5] | pIC50 [1, 6] | pIC50 (mTOR; [7]) | pIC50 (mTOR; [8]) | pIC50 (PI3Kα) | pIC50 [2] | pIC50 (PI3Kβ) | pIC50 (PI3Kγ)
1 | C[C@H]1COCCN1c1cc(-c2ccncc2F)nc(-c2ccc(NC(=O)NC3CC3)cc2)n1 [Example 24, (S)-1-cyclopropyl-3-(4-(4-(3-fluoropyridin-4-yl)-6-(3-methylmorpholino)pyrimidin-2-yl)phenyl)urea] | ≤ 5.00 | ≤ 5.00 | ≤ 5.00 | ≤ 5.00 | 6.00 to 7.00 | 6.00 to 7.00 | ≤ 5.00 | 6.00 to 7.00 | ≤ 5.00 | ≤ 5.00
2 | C[C@H]1COCCN1c1nc(-c2ccc(NC(=O)NC3COC3)cc2)cc(-c2cc(F)ccc2S(C)(=O)=O)n1 [Example 86, (S)-1-(4-(6-(5-fluoro-2-(methylsulfonyl)phenyl)-2-(3-methylmorpholino)pyrimidin-4-yl)phenyl)-3-(oxetan-3-yl)urea] |  | ≤ 5.00 |  | ≤ 5.00 |  | 6.00 to 7.00 | ≤ 5.00 | 6.00 to 7.00 | ≤ 5.00 | ≤ 5.00
3 | C[C@@H](O)CNC(=O)Nc1ccc(-c2cc(-c3cc(F)ccc3S(C)(=O)=O)nc(N3CCOC[C@@H]3C)n2)cc1 [Example 82] |  | ≤ 5.00 |  | ≤ 5.00 |  | 5.00 to 6.00 | ≤ 5.00 | > 7.00 | ≤ 5.00 | ≤ 5.00
4 | C[C@H]1COCCN1c1cc(-c2cc(F)ccc2S(C)(=O)=O)nc(-c2ccc(NC(=O)NCCO)cc2F)n1 [Example 72, (S)-1-(3-fluoro-4-(4-(5-fluoro-2-(methylsulfonyl)phenyl)-6-(3-methylmorpholino)pyrimidin-2-yl)phenyl)-3-(2-hydroxyethyl)urea] | ≤ 5.00 | ≤ 5.00 | ≤ 5.00 | ≤ 5.00 | 6.00 to 7.00 | 6.00 to 7.00 | ≤ 5.00 | 6.00 to 7.00 | ≤ 5.00 | ≤ 5.00
5 | C[C@H]1COCCN1c1nc(-c2ccc(NC(=O)NC3(CO)CCC3)cc2)cc(-c2cc(F)ccc2S(C)(=O)=O)n1 [Example 75, (S)-1-(4-(6-(5-fluoro-2-(methylsulfonyl)phenyl)-2-(3-methylmorpholino)pyrimidin-4-yl)phenyl)-3-(1-(hydroxymethyl)cyclobutyl)urea] |  | ≤ 5.00 |  | ≤ 5.00 |  | 6.00 to 7.00 | ≤ 5.00 | 6.00 to 7.00 | ≤ 5.00 | ≤ 5.00
6 | O=C(NCCF)Nc1ccc(-c2nccc(N3CC4CCC(C3)O4)n2)cc1 [Example 52, 1-(4-(4-(8-oxa-3-azabicyclo[3.2.1]octan-3-yl)pyrimidin-2-yl)phenyl)-3-(2-fluoroethyl)urea] | ≤ 5.00 | ≤ 5.00 | 5.00 to 6.00 | 5.00 to 6.00 | 6.00 to 7.00 | 6.00 to 7.00 | ≤ 5.00 | 6.00 to 7.00 | ≤ 5.00 | ≤ 5.00
7 | C[C@H]1COCCN1c1ccnc(-c2ccc(NC(=O)NCCO)cc2)n1 [Example 53, (S)-1-(2-hydroxyethyl)-3-(4-(4-(3-methylmorpholino)pyrimidin-2-yl)phenyl)urea] | ≤ 5.00 | ≤ 5.00 | ≤ 5.00 | ≤ 5.00 | 6.00 to 7.00 | 6.00 to 7.00 | 5.00 to 6.00 | 6.00 to 7.00 | ≤ 5.00 | ≤ 5.00
8 | O=C(NCCO)Nc1ccc(-c2ccnc(N3CC4CCC(C3)O4)n2)cc1 [Example 59, 1-(4-(2-(8-oxa-3-azabicyclo[3.2.1]octan-3-yl)pyrimidin-4-yl)phenyl)-3-(2-hydroxyethyl)urea] | ≤ 5.00 | ≤ 5.00 | ≤ 5.00 | ≤ 5.00 | 5.00 to 6.00 | 5.00 to 6.00 | ≤ 5.00 | 6.00 to 7.00 | ≤ 5.00 | ≤ 5.00
9 | CC(O)CNC(=O)Nc1ccc(-c2cc(-c3cc(F)ccc3S(C)(=O)=O)nc(N3CCOC[C@@H]3C)n2)cc1 (stereo partly drawn) [Example 71, 1-(4-(6-(5-fluoro-2-(methylsulfonyl)phenyl)-2-((S)-3-methylmorpholino)pyrimidin-4-yl)phenyl)-3-(2-hydroxypropyl)urea] | ≤ 5.00 | ≤ 5.00 | ≤ 5.00 | ≤ 5.00 | 6.00 to 7.00 | 6.00 to 7.00 | ≤ 5.00 | > 7.00 | ≤ 5.00 | ≤ 5.00
10 | O=C(Nc1ccc(-c2ccnc(N3CCOCC3)n2)cc1)NC1CC1 [Example 28, 1-cyclopropyl-3-(4-(2-morpholinopyrimidin-4-yl)phenyl)urea] | ≤ 5.00 | ≤ 5.00 | ≤ 5.00 | ≤ 5.00 | 5.00 to 6.00 | 5.00 to 6.00 | ≤ 5.00 | 5.00 to 6.00 | ≤ 5.00 | ≤ 5.00
11 | CCNC(=O)Nc1ccc(-c2ccnc(N3CC4CCC(C3)O4)n2)cc1 [Example 56, 1-(4-(2-(8-oxa-3-azabicyclo[3.2.1]octan-3-yl)pyrimidin-4-yl)phenyl)-3-ethylurea] | ≤ 5.00 | ≤ 5.00 | ≤ 5.00 | ≤ 5.00 | 5.00 to 6.00 | 5.00 to 6.00 | ≤ 5.00 | 6.00 to 7.00 | ≤ 5.00 | ≤ 5.00

Source: patent US9249129B2, “Morpholino substituted urea derivatives as mTOR inhibitors” (CELLZOME LIMITED, priority 2010, dated 2016)
